The values below come from patent publication US20200222531A1, “METHODS OF POPULATING PRECIPITATED PARTICLES OF A MODIFIED OR SYNTHESIZED SUBSTANCE IN A TISSUE” (priority 2010, published 2020).

This series in a line: Solubility of urushiol in 95% ethanol and in water. The class given is physicochemical. The text has this: The poison ivy allergen, urushiol, is soluble in 95% ethanol but insoluble in water. Intramuscular injection of urushiol in small volumes of 95% ethanol results in precipitation of large numbers of small insoluble particles as the ethanol is rapidly diluted by interstitial or tissue fluid, resulting in a […] enhancement of tolerogenesis per mg administered urushiol. As the most practical way to make an Ara h2 vaccine with the solubility properties needed to exploit the benefit of this delivery system may be a derivative of a process already known to enhance tolerogenesis, the inventors have the opportunity to see if the synergistic application of two methods of tolerogenesis enhancement yields a sufficiently high ratio of tolerogenicity to allergenicity to constitute a predictably safe and effective treatment for peanut allergy.

urushiol: the “solubility in 95% ethanol” value (95% ethanol) is “soluble”. For the setting “water”, the solubility in water entry is “insoluble”.
